Assay results as given in patent US10201559B2, “Compositions of selenoorganic compounds and methods of use thereof” (Alltech, Inc., priority 2014, dated 2019).

Assays:
Gsk3b = assay: Western blot, Gsk3b in IMR-32 cells; assay type: cell-based, human; details: 150 ppb, 24 hr, compared to control cells
Protocol: (§1) IMR-32 and AML12 cells were seeded on 6-well plates, and then treated with vehicle and various compounds for 6 and 24 hr, as described above. After treatments, cells were rinsed with ice-cold PBS, and lysed in the ice-cold RIPA buffer containing complete proteinase and phosphotase inhibitors (Themo-Fisher Scientific, Waltham, Mass.) on ice for 30 min. Cell lysates were collected using a cell scraper and transfer pipette, and then centrifuged at 12000 g for 30 min at 4° C. to remove the DNA pellet and obtain the protein extract. Protein levels in the supernatant of these cell lysates were determined using the Pierce Micro-BCA protein assay kit (Themo Scientific-Piece Biotechnology, Rockford, Ill.) according to the manufacturer's protocol.
(§2) For Western blot analysis, five micrograms of total proteins from vehicle- and compound(s)-treated cells were subjected to SDS-PAGE gel separation, and then transferred to PVDF membranes, as described previously (Reddy, Liu et al. 2008 Science). […] All primary antibodies except G6PC (Santa Cruz), Actb (Li-COR, Lincoln, Nebr.), Elf2bε and pElf2bε (Abcam, Cambridge, Mass.) were purchased from Cell Signaling Inc. Positive signals on the membrane blots were detected using the Amersham's enhanced chemiluminescence Western Blotting Prime Detection reagents (GE healthcare Lifescience, Pittsburgh, Pa.). […]

PEN2 = assay: Western blot, PEN2 in IMR-32 cells; assay type: cell-based, human; details: 150 ppb, 24 hr
Protocol: as §1, §2

beta-secretase BACE = assay: Western blot, BACE in IMR-32 cells; assay type: cell-based, human; details: 150 ppb, 24 hr
Protocol: as §1, §2

PSEN = assay: Western blot, PSEN in IMR-32 cells; assay type: cell-based, human; details: 150 ppb, 24 hr
Protocol: as §1, §2

[1] = system: rat brain cortex mitochondria; assay: OCR of calcium-stressed rat brain cortex mitochondria (SeaHorse); assay type: biochemical; details: calcium (10 μM) and 150 ppb compound; control 1,677, calcium alone 1,066
Protocol: The following example describes an experiment performed in the SeaHorse external flux analyzer; an instrument for measuring the respiration rate of mitochondria expressed as the oxygen consumption rate, or OCR. The experiment in question used mitochondria from the brain cortex of normal rats, maintained on normal laboratory chow which had not been fortified with any additional selenium sources.
An identical sample of the same mitochondrial preparation was treated in exactly the same manner as the control sample except that calcium (10 micromolar final concentration) was added to stress or damage the mitochondria by depolarizing them. As shown (bottom line) the OCR dropped from a value of 1,677 to 1,066 pMoles/min O2.
Again, identical samples of rat brain cortex mitochondria were incubated as above except that they contained calcium (10 μM) and 150 ppb of compounds D and E, respectively. C was not tested. It is evident that the OCR of the compound-treated, calcium-stressed mitochondria were restored to near control levels, i.e. 1,564 pMoles/min O2 in the case of compound D and 1,531 pMoles/min O2 in the case of compound E.

SMILES	Gsk3b protein levels (Gsk3b)	PEN2 protein (PEN2)	beta-secretase BACE protein (beta-secretase BACE)	PSEN protein level (PSEN)	OCR (oxygen consumption rate) [1]
C[Se]C[C@H]1O[C@@H](n2cnc3c(N)ncnc32)C(O)C1O (stereo in doubt) [compound C, 5′-Methylselenoadenosine]	statistically significant decrease of Gsk3b protein levels	but not PEN2 and beta-secretase BACE proteins were attenuated	but not PEN2 and beta-secretase BACE proteins were attenuated	significant reduction	
Nc1ncnc2c1ncn2[C@@H]1O[C@H](C[Se]CC[C@@H](N)C(=O)O)C(O)C1O (stereo partly drawn) [compound D, 5′-Selenoadenosyl homocysteine]					1,564 pMoles/min O2
C[Se]CC(NC(=O)CCC(N)C(=O)O)C(=O)O (stereo not drawn) [compound E, gamma-glutamyl-methylseleno-cysteine]					1,531 pMoles/min O2
